Converted amounts (≈) assume the structure as drawn.
Legend:
S. aureus ATCC 6538P = assay: Antibacterial activity: MIC/MBC determination and disc-diffusion; assay type: cell-based, Staphylococcus aureus; conditions: S. aureus ATCC 6538P; for diameter of inhibition zone: disc-diffusion, — = zone not observed; for MIC / MBC: Staphylococcus aureus, ATCC6538P; for MIC: read-out: MIC; for MBC: read-out: MBC (first MBC where Eagle effect)
Protocol: (§1) Direct antimicrobial activity was determined against the following standard strains: (1) Gram-positive cocci: methicillin-sensitive Staphylococcus aureus ATCC 6538P (MSSA), methicillin-resistant S. aureus subsp. aureus ATCC 43300 (MRSA), S. epidermidis ATCC 12228, Enterococcus faecium ATCC 6057, E. faecalis ATCC 29212, Bacillus subtilis ATCC 6633; (2) Gram-negative bacteria from Enterobacteriales order: Klebsiella pneumoniae ATCC 13883, Escherichia coli ATCC 25922, Enterobacter cloacae DSM 6234, Proteus mirabilis ATCC 12453, Serratia marcescens ATCC 13880; (3) Gram-negative non-fermentative rods: Acinetobacter baumannii ATCC 19606, Pseudomonas aeruginosa ATCC 27853, Stenotrophomonas maltophilia ATCC 12714, S. maltophilia ATCC 13637, Burkholderia cepacia ATCC 25416, Bordetella bronchiseptica ATCC 4617; (4) yeasts: Candida albicans ATCC 90028, C. krusei ATCC 6258, C. parapsilosis ATCC 22019, C. tropicalis (Castellani) Berkhout ATCC 750, C. tropicalis IBA 171, C. guilliermondii IBA 155, and Saccharomyces cerevisiae ATCC 9763. Moreover, 5 clinical strains of methicillin-resistant S. aureus were also included: NMI 664 K, NMI 1576 K, NMI 1712 K, NMI 1991 K, and NMI 2541 K. All strains were stored at −80 °C. Prior to testing, each bacterial strain was subcultured twice on tryptic soy agar TSA (bioMerieux) medium and yeast strains on Sabouraud dextrose agar (bioMerieux) for 24–48 h at 30 °C to ensure viability. The antimicrobial activity was evaluated as previously described[26] by the disc-diffusion method and the MIC determination assays according to the EUCAST (ref. [71] and [72]) and CLSI (ref. [53] and [73]) recommendations. Assessment of bactericidal (MBC) and fungicidal (MFC) activities was performed according to the CLSI recommendations.[54,74] The following reference agents were used: fluconazole (in the case of fungi), linezolid (for Gram-positive bacteria), and nitrofurantoin (for Gram-negative rods). The new benzosiloxaboroles were dissolved in DMSO (Sigma).

E. faecalis ATCC 29212 = assay: as above; assay type: cell-based; conditions: Enterococcus faecalis, ATCC29212; E. faecalis ATCC 29212; read-out: MIC
Protocol: as §1

E. faecium ATCC 6057 = assay: as above; assay type: cell-based; conditions: Enterococcus faecium, ATCC6057; E. faecium ATCC 6057; read-out: MIC
Protocol: as §1

[1] = test system: S. aureus ATCC 43300 MRSA; assay: as above; assay type: cell-based; conditions: Staphylococcus aureus, S. aureus ATCC 43300 MRSA; for MIC: read-out: MIC; for MBC: read-out: MBC (first MBC where Eagle effect)
Protocol: as §1

[2] = test system: S. epidermidis ATCC 12228; assay: as above; assay type: cell-based; conditions: Staphylococcus epidermidis, ATCC12228, S. epidermidis ATCC 12228; for MIC: read-out: MIC
Protocol: as §1

E. cloacae DSM 6234 = assay: Antibacterial activity: MIC/MBC, MIC with PAβN, disc-diffusion; assay type: cell-based, Enterobacter cloacae; conditions: E. cloacae DSM 6234; for MIC: Enterobacter cloacae, DSM6234, read-out: MIC
Protocol: as §1, with “The following reference agents were used: fluconazole (in the case of fungi), linezolid (for Gram-positive bacteria), and nitrofurantoin (for Gram-negative rods).” left out
(§2) Considering that the MDR efflux pumps often contribute to Gram-negative rod resistance, the MIC values of studied agents, with or without the pump inhibitor, PAβN (20 μg mL^−1) (Sigma), were determined.[75] The MIC was determined using Mueller–Hinton II broth medium (MHB) (Becton Dickinson) by the broth microdilution method, according to the CLSI guideliness.[53] To minimize the influence of PAβN on the destabilization of bacterial cell covers, the tests were conducted in the presence of 1 mM MgSO4 (Sigma).[76] At least a 4-fold reduction in the MIC value after the addition of PAβN was considered significant.[56,77]

A. baumannii ATCC 19606 = assay: as above; assay type: cell-based, Acinetobacter baumannii; conditions: A. baumannii ATCC 19606; for MIC: read-out: MIC
Protocol: as §1, with “The following reference agents were used: fluconazole (in the case of fungi), linezolid (for Gram-positive bacteria), and nitrofurantoin (for Gram-negative rods).” left out
as §2

P. aeruginosa ATCC 27853 = assay: as above; assay type: cell-based; conditions: Pseudomonas aeruginosa, ATCC27853; P. aeruginosa ATCC 27853; read-out: MIC
Protocol: as §1, with “The following reference agents were used: fluconazole (in the case of fungi), linezolid (for Gram-positive bacteria), and nitrofurantoin (for Gram-negative rods).” left out
as §2

[3] = test system: S. maltophilia ATCC 12714; assay: as above; assay type: cell-based, Stenotrophomonas maltophilia; conditions: S. maltophilia ATCC 12714; for MIC: Stenotrophomonas maltophilia, ATCC12714, read-out: MIC
Protocol: as §1, with “The following reference agents were used: fluconazole (in the case of fungi), linezolid (for Gram-positive bacteria), and nitrofurantoin (for Gram-negative rods).” left out
as §2

C. krusei ATCC 6258 = assay: Antifungal activity: MIC/MFC, disc-diffusion; assay type: cell-based; conditions: Pichia kudriavzevii, ATCC6258; read-out: MIC
Protocol: as §1, with “The following reference agents were used: fluconazole (in the case of fungi), linezolid (for Gram-positive bacteria), and nitrofurantoin (for Gram-negative rods).” left out

[4] = Acinetobacter baumannii, ATCC19606
[5] = PAβN 20 μg mL^−1, MHB + 1 mM MgSO4
[6] = (-) = zone not observed, paper discs 9 mm

SMILES | diameter of inhibition zone (S. aureus ATCC 6538P) [mm] | MIC (S. aureus ATCC 6538P) [µg/mL] | MIC (E. faecalis ATCC 29212) [µg/mL] | MIC (E. faecium ATCC 6057) [µg/mL] | MIC [1] [µg/mL] | MIC [2] [µg/mL] | MIC (E. cloacae DSM 6234) [µg/mL] | MIC (A. baumannii ATCC 19606; [4]) [µg/mL] | MIC (P. aeruginosa ATCC 27853) [µg/mL] | MIC [3] [µg/mL] | MIC (C. krusei ATCC 6258) [µg/mL] | MBC (S. aureus ATCC 6538P) [µg/mL] | MBC [1] [µg/mL] | MBC [2] [µg/mL] | -fold reduction of MIC in the presence of PAβN (E. cloacae DSM 6234; [5]) | diameter of inhibition zone (A. baumannii ATCC 19606; [6]) [mm] | -fold reduction of MIC in the presence of PAβN (A. baumannii ATCC 19606; [5]) | MBC (A. baumannii ATCC 19606; [4]) [µg/mL] | diameter of inhibition zone [3, 6] [mm] | -fold reduction of MIC in the presence of PAβN [3, 5]
C[Si]1(C)OB(O)c2cc(F)c(SCCC(N)=O)c(F)c21 [Compound 7, 3-((5,7-Difluoro-3-hydroxy-1,1-dimethyl-1,3-dihydrobenzo[c][1,2,5]oxasilaborol-6-yl)thio)propanamide] | 24 | 50 (≈ 158 µM) | 400 (≈ 1260 µM) | 200 (≈ 631 µM) | 100 (≈ 315 µM) | 100 (≈ 315 µM) | > 400 | > 400 | > 400 | > 400 | > 400 | – | – | – | – | – | – | – | – | –
C[Si]1(C)OB(O)c2cc(F)c(S(N)(=O)=O)c(F)c21 [Compound 27, 5,7-Difluoro-3-hydroxy-1,1-dimethyl-1,3-dihydrobenzo[c][1,2,5]oxasilaborole-6-sulfonamide] | – | 400 (≈ 1360 µM) | 400 (≈ 1360 µM) | 400 (≈ 1360 µM) | > 400 | > 400 | > 400 | > 400 | > 400 | > 400 | > 400 | – | – | – | – | – | – | – | – | –
Cc1cc(NC(=O)CCSc2c(F)cc3c(c2F)[Si](C)(C)OB3O)no1 [Compound 11, 3-((5,7-Difluoro-3-hydroxy-1,1-dimethyl-1,3-dihydrobenzo[c][1,2,5]oxasilaborol-6-yl)thio)-N-(5-methylisoxazol-3-yl)propanamide] | 21 | 25 (≈ 62.8 µM) | 200 (≈ 502 µM) | 200 (≈ 502 µM) | 50 (≈ 126 µM) | 25 (≈ 62.8 µM) | > 400 | > 400 | > 400 | > 400 | > 400 | 400 (≈ 1000 µM) | 400 (≈ 1000 µM) | 400 (≈ 1000 µM) | – | – | – | – | – | –
C[Si]1(C)OB(O)c2cc(F)c(SC3CC(=O)NC3=O)c(F)c21 (stereo not shown) [Compound 12, 3-((5,7-Difluoro-3-hydroxy-1,1-dimethyl-1,3-dihydrobenzo[c][1,2,5]oxasilaborol-6-yl)thio)pyrrolidine-2,5-dione] | 20 | 6.25 (≈ 18.2 µM) | 25 (≈ 72.8 µM) | 12.5 (≈ 36.4 µM) | 12.5 (≈ 36.4 µM) | 6.25 (≈ 18.2 µM) | > 400 | 100 (≈ 291 µM) | > 400 | 200 (≈ 583 µM) | > 400 | 100 (≈ 291 µM) | 200 (≈ 583 µM) | 400 (≈ 1170 µM) | 8 -fold | 18 | 2 -fold | 200 (≈ 583 µM) | 13 | 2 -fold
